The values below come from patent USRE47689E1, “Compounds for treating spinal muscular atrophy” (PTC Therapeutics, Inc., priority 2011, dated 2019).

The subject of one data set is Smn protein. The data set is described as follows: Smn protein assay in cultured cells (SMN HTRF). Type of data set: cell-based, human. The settings on record: 48 hours; for maximum fold (Fold) increase of Smn protein: SMA patient fibroblast cells, 7-point concentration data, fold increase relative to vehicle control (SMN HTRF); for EC1.5x (concentration giving 1.5-fold Smn protein increase): SMA Type 1 patient fibroblast cells (GM03813), 7-point concentration curve, SMN HTRF, concentration producing 1.5 times Smn protein vs DMSO vehicle control, read-out: EC1.5x for Smn protein expression. The gist of the method:
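Smn in SMA fibroblast lysates, measured by anti-SMN HTRF after 48 h compound exposure; EC1.5x from fold change over vehicle.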
In general terms: Time-resolved FRET reads energy transfer from a long-lived donor to a nearby acceptor.

Data set [1] has as its system SMN2 minigene (full length SMN2 minigene mRNA containing SMN2 exon 7). The data set can be described thus: SMN2 minigene mRNA splicing RT-qPCR assay in cultured cells. In kind it is cell-based, human. The settings on record: Homo sapiens, HEK293-H; HEK293H cells stably transfected with SMN2-A minigene; 24 hours; 7-point concentration curve; 1.5-fold relative to vehicle-treated cells; read-out: EC1.5x for production of full length SMN2 mRNA. The essentials: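 Lysates → one-step RT-qPCR, minigene-specific primers (0.4 μM final) + GAPDH multiplex, 40 cycles. FL/GAPDH vs DMSO; EC1.5x, star-binned.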
(In general: Quantitative PCR measures a nucleic acid by following its amplification.)

`C[C@@H]1CN(c2ccc3cc(-c4cn5cc(Cl)cnc5n4)c(=O)oc3c2)C[C@H](C)N1` [Compound 349, 3-(6-chloroimidazo[1,2-a]pyrimidin-2-yl)-7-[(3R,5S)-3,5-dimethylpiperazin-1-yl]-2H-chromen-2-one]: the melting point (in general, the temperature of the solid-liquid transition) lay within 265 to 271 °C. Moreover, the “maximum fold (Fold) increase of Smn protein” value (shortened to “maximum fold (Fold) increase”) in the data set on Smn protein is reported as “* (maximum fold increase of ≤1.2)”. Besides, the EC (1.5-fold) in data set [1] fell in the range of 1 to 3 µM.
As for `CC(=O)O.CC[C@H]1CN(c2ccc3cc(-c4cn5cc(C)nc(C)c5n4)c(=O)oc3c2)CCN1C` [Compound 778, 3-(6,8-dimethylimidazo [1,2-a]pyrazin-2-yl)-7-[(3S)-3-ethyl-4-methylpiperazin-1-yl]-2H-chromen-2-one acetate], the melting point is 170 to 172 °C. In the data set on Smn protein, the EC1.5x (concentration giving 1.5-fold Smn protein increase) was under 300 nM and the “maximum fold (Fold) increase” value was “***** (fold increase >1.65)”. The EC (1.5-fold) in data set [1] is under 0.1 µM.
With `Cc1cn2cc(-c3cc4ccc(CCCN)cc4oc3=O)nc2c(C)n1` [Cpd 927, 7-(3-aminopropyl)-3-(6,8-dimethylimidazo[1,2-a]pyrazin-2-yl)-2H-chromen-2-one], the melting point fell in the range of 212 to 216 °C. In the data set on Smn protein, the “maximum fold (Fold) increase” value was “** (fold increase between >1.2 and ≤1.35)”. The EC (1.5-fold) in data set [1] lay within 1 to 3 µM.
`Cc1cn2cc(-c3cc4ccc(N5CCN(C6CC6)CC5)cc4oc3=O)nc2cn1` [Compound 811, 7-(4-cyclopropylpiperazin-1-yl)-3-(6-methylimidazo[1,2-a]pyrazin-2-yl)-2H-chromen-2-one] returned a melting point of 287 to 289 °C. In the data set on Smn protein, the EC1.5x (concentration giving 1.5-fold Smn protein increase) is 300 to 1000 nM; the “maximum fold (Fold) increase” value is “**** (fold increase between >1.5 and ≤1.65)”. In data set [1], the EC (1.5-fold) was 0.3 to 1 µM.
`Cc1cn2cc(-c3cc4ccc(N5CCC(N(C)C)CC5)cc4oc3=O)cc2cn1` [Compound 716, 7-[4-(dimethylamino)piperidin-1-yl]-3-(3-methylpyrrolo[1,2-a]pyrazin-7-yl)-2H-chromen-2-one]: the melting point was in the range of 224 to 227 °C. Moreover, in the data set with Smn protein, the EC1.5x (concentration giving 1.5-fold Smn protein increase) is 1000 to 3000 nM; the “maximum fold (Fold) increase” value was “**** (fold increase between >1.5 and ≤1.65)”. Further, the EC (1.5-fold) in data set [1] was under 0.1 µM.
On to `C[C@@H]1CN(c2ccc3cc(-c4cn5cccc(C(F)(F)F)c5n4)c(=O)oc3c2)C[C@H](C)N1` [Compound 211, 7-[(3R,5S)-3,5-dimethylpiperazin-1-yl]-3-[8-(trifluoromethyl)imidazo[1,2-a]pyridin-2-yl]-2H-chromen-2-one], for which the melting point lay in the range of 295 to 298 °C. In addition, in the data set with Smn protein, the “maximum fold (Fold) increase” value was “* (maximum fold increase of ≤1.2)”. For the same molecule, the EC (1.5-fold) in data set [1] lay within 0.3 to 1 µM.
Turning to `Cc1ccc2nc(-c3cc4ccc(N5C[C@@H]6C[C@H]5CN6)cc4oc3=O)cn2c1` [Compound 173, 7-[(1S,4S)-2,5-diazabicyclo[2.2.1]hept-2-yl]-3-(6-methylimidazo[1,2-a]pyridin-2-yl)-2H-chromen-2-one], the melting point is 212 to 215 °C. For the same molecule, the “maximum fold (Fold) increase” value in the data set with Smn protein was “** (fold increase between >1.2 and ≤1.35)”. Also, the EC (1.5-fold) in data set [1] lay within 0.3 to 1 µM.
`COc1ccc(-c2cc3ccc(N4CCNCC4)cc3oc2=O)c(OC)c1` [Compound 465, 3-(2,4-dimethoxyphenyl)-7-(piperazin-1-yl)-2H-chromen-2-one] displayed a melting point of 171 to 173 °C. In addition, in the data set on Smn protein, the “maximum fold (Fold) increase” value was “* (maximum fold increase of ≤1.2)”. In data set [1], the EC (1.5-fold) was 3 to 30 µM.
For the molecule `CNCCc1ccc2cc(-c3cn4cc(C)nc(C)c4n3)c(=O)oc2c1` [Compound 911, 3-(6,8-dimethylimidazo[1,2-a]pyrazin-2-yl)-7-[2-(methylamino)ethyl]-2H-chromen-2-one], the melting point was 204 to 208 °C. Also, in the data set on Smn protein, the EC1.5x (concentration giving 1.5-fold Smn protein increase) was under 300 nM and the “maximum fold (Fold) increase” value is given as “***** (fold increase >1.65)”. The EC (1.5-fold) in data set [1] was under 0.1 µM.
`Cc1ccn2cc(-c3cc4ccc(N5CCN6CCC[C@H]6C5)cc4oc3=O)nc2c1` [Compound 534, 7-[(8aS)-hexahydropyrrolo[1,2-a]pyrazin-2(1H)-yl]-3-(7-methylimidazo[1,2-a]pyridin-2-yl)-2H-chromen-2-one]: the melting point is 258 to 265 °C. The “maximum fold (Fold) increase” value with Smn protein was “*** (fold increase between >1.35 and ≤1.5)”. In addition, the EC (1.5-fold) in data set [1] lay in the range of 1 to 3 µM.
Take `CCc1cc(C)cn2cc(-c3cc4ccc(N5CCN(C)CC5)cc4oc3=O)nc12` [Compound 340, 3-(8-ethyl-6-methylimidazo[1,2-a]pyridin-2-yl)-7-(4-methylpiperazin-1-yl)-2H-chromen-2-one]: the melting point lay within 203 to 210 °C. The “maximum fold (Fold) increase” value in the data set with Smn protein is “* (maximum fold increase of ≤1.2)”. In data set [1], the EC (1.5-fold) lay within 0.3 to 1 µM.
Molecule `Cc1cn2cc(-c3cc4ccc(N5CC[C@H]6CN(C)C[C@H]65)cc4oc3=O)nc2c(C)n1` [Compound 689, 3-(6,8-dimethylimidazo[1,2-a]pyrazin-2-yl)-7-[(3aS,6aS)-5-methylhexahydropyrrolo[3,4-b]pyrrol-1(2H)-yl]-2H-chromen-2-one] displayed a melting point of 241 to 248 °C. In addition, the “maximum fold (Fold) increase” value in the data set on Smn protein is “*** (fold increase between >1.35 and ≤1.5)”. Further, in data set [1], the EC (1.5-fold) was in the range of 0.3 to 1 µM.
In the case of `Cc1cn2cc(-c3cc4ccc(N5CCN[C@@H](C)C5)cc4oc3=O)cc2cn1` [Compound 647, 7-[(3S)-3-methylpiperazin-1-yl]-3-(3-methylpyrrolo[1,2-a]pyrazin-7-yl)-2H-chromen-2-one], the melting point fell in the range of 202 to 204 °C. Further, in the data set on Smn protein, the EC1.5x (concentration giving 1.5-fold Smn protein increase) was under 300 nM; the “maximum fold (Fold) increase” value was “**** (fold increase between >1.5 and ≤1.65)”. The EC (1.5-fold) in data set [1] was under 0.1 µM.
For `Cc1cn2cc(-c3cc4ccc(OCCNC(C)C)cc4oc3=O)nc2c(C)n1` [Compound 877, 3-(6,8-dimethylimidazo[1,2-a]pyrazin-2-yl)-7-[2-(propan-2-ylamino)ethoxy]-2H-chromen-2-one], the melting point was 202 to 207 °C. In the data set on Smn protein, the EC1.5x (concentration giving 1.5-fold Smn protein increase) was 300 to 1000 nM; the “maximum fold (Fold) increase” value was “*** (fold increase between >1.35 and ≤1.5)”. Further, in data set [1], the EC (1.5-fold) was under 0.1 µM.
Molecule `C[C@H]1CN(c2ccc3cc(-c4ccc(F)c(Cl)c4)c(=O)oc3c2)CCN1` [Compound 485, 3-(3-chloro-4-fluorophenyl)-7-[(3S)-3-methylpiperazin-1-yl]-2H-chromen-2-one] gave a melting point of 143 to 145 °C. In the data set with Smn protein, the “maximum fold (Fold) increase” value was “* (maximum fold increase of ≤1.2)”. In data set [1], the EC (1.5-fold) lay within 1 to 3 µM.
`CCC1CN(c2ccc3cc(-c4cn5cc(C)nc(C)c5n4)c(=O)oc3c2)CCN1C` (stereo not shown) [Compound 676, 3-(6,8-dimethylimidazo[1,2-a]pyrazin-2-yl)-7-(3-ethyl-4-methylpiperazin-1-yl)-2H-chromen-2-one] registered a melting point of 258 to 262 °C. Moreover, in the data set on Smn protein, the EC1.5x (concentration giving 1.5-fold Smn protein increase) is under 300 nM and the “maximum fold (Fold) increase” value was “***** (fold increase >1.65)”. Further, the EC (1.5-fold) in data set [1] was under 0.1 µM.
